Assay results taken from patent US20250059499A1, “CELL-SURFACE ENGINEERING COMPOSITIONS AND METHODS FOR THE PREVENTION OF IMMUNE REJECTION” (THE UNIVERSITY OF BRITISH COLUMBIA, priority 2021, published 2025).
LPG = linear polyglycerol, Mn 14,900 Da

Experiments:
[1] = tested on: Ea.hy926 cells; assay: Polymer attachment to endothelial cell surface by flow cytometry (BODIPY FL-labelled polymer); assay type: cell-based
Procedure: Ea.hy 926 cells at […] confluence were trypsinized and plated in a 96 well plate at 15,000 cells/well. Cells reached 100% confluence at day 3 and allowed to grow for a further 4 days at 37° C. and 5% CO2. Cells were washed twice with cold DPBS and incubated with UW solution freshly supplemented with 3 mM GSH, 5 mM CaCl2, 0.2 […] and 0.5 mM LPG-Q or 0.56 mM glycopolymers ([…]) unless otherwise noted. The solutions were mixed thoroughly and incubated at 4° C. for 30 minutes under static conditions. The cell supernatant was collected and the cells were washed three times with PBS and subjected to further analysis. The assessment of polymer attachment to endothelial cells are assessed by ammonia assay, flow cytometry and polymer mediated cell-surface camouflage of surface proteins. […] To quantify the extent of cell surface engineering, polymers were attached to endothelial surfaces according to the general cell surface engineering procedures outlined in previously using polymer in which 10% were labelled with BODIPY FLTM (ratio of non-labeled polymer: BODIPY labeled polymer=9:1). The cell monolayers were trypsinized and subjected to flow cytometry (CytoFLEXTM, Beckman CoulterTM) in which 10,000 events were acquired and the median fluorescent intensity (MFI) in the 488 channel was recorded.

[2] = tested on: Ea.hy926 cells; assay: Lifetime of grafted polymer on the cell surface; assay type: cell-based; settings: 37° C., after ligation with 0.5 mM polymer
Procedure: For lifetime measurements, polymers were attached to endothelial surfaces according to procedures outlined herein using 0.5 mM LPG-Q (10% BODIPY FL™) and exchanged into phenol-free DMEM (5% FBS, pen/strep) and incubated at 37° C. and 5% CO2. For each time point the supernatant was removed and saved for further analysis and the cell monolayers were trypsinized and subjected to flow cytometry (CytoFLEX™, Beckman Coulter™) in which 10,000 events were acquired and the median fluorescent intensity (MFI) in the 488 channel was recorded. The fluorescent intensity of the BODIPY-FL Dye in the supernatant was measured (λex/λem=503/520 nm using) a plate reader (Spectramax i3™, Molecular Devices™). Intensity values were normalized to the total cell number in each well as assessed by a trypan blue staining assay.

[3] = tested on: Ea.hy926 cells; assay: Enzyme-mediated glycocalyx removal from endothelial surface (loss of attached polymer); assay type: cell-based; settings: 0.1 mM H2O2 and 1 nM epinephrine, 1 hour at 37° C.
Procedure: Ea.hy926 endothelial cells were treated with 0.5 mM LPG-SS or LPG-Q (containing 10% BODIPY FL) for 30 min at 4° C. in UW solution fortified with 3 mM GSH, 5 mM CaCl2, 0.2 U/mL gtTGase. […] Cells were washed, trypsinized and immediately subjected to flow cytometry. Controls with no enzyme treatment were used to set gates for 100% labeled cell populations.

[4] = tested on: IL-2 activated PBMCs on TNF-α activated Ea.hy926 monolayers; assay: PBMC adhesion to endothelial surfaces; assay type: cell-based, human; settings: 0.5 mM LPG-Q or 0.56 mM LPG-Q-Sia3Lac
Procedure: Confluent Ea.hy926 monolayers seeded in a 48 well plate (30,000 cells/well) were activated with TNF-α (2000 U/mL, 3 hours). To obtain PBMCs, EDTA anticoagulated blood from healthy donors was subjected to ficoll density gradient centrifugation Histopaque™-1077 (Sigma Aldrich™). PBMCs were cultured for 24 h in RPMI-1640 containing 10% FBS (v/v), 1000 U/mL recombinant human IL-2 (Cedarlane™)^11 and 1% P/S. Prior to fluorescent labelling, cultured PBMCs were tested for absence of platelets by labelling an aliquot of cells with FITC-labelled anti-human […] (1:200 Beckman Coulter™) and analyzed by flow cytometry (CytoFLEX™, Beckman Coulter™). PBMCs containing <1% platelets were implemented for further study. The PBMC composition was also measured using a hematological analyzer (XN-550™ automated hematology analyzer, Sysmex Canada Inc.™). Following IL-2 treatment the typical composition of the PBMCs were ˜80% lymphocytes, 5% immature granulocytes, 2% basophils and 13% monocytes. […] PMBC adhesion was quantified by lysing the cells with RIPA buffer, spinning at 15,000 g to remove cell debris and measuring the fluorescent intensity of the CMFDA Dye in the lysate (λex/λem=492/517 nm using a plate reader (Spectramax3™, Molecular Devices™).

[5] = tested on: Balb/c aortic allograft in C57BL/6 recipient; assay: Murine aortic interposition grafting, morphological analysis of allograft arteries; assay type: in vivo, mouse; settings: day 2 post-transplantation
Procedure: Murine aortic interposition grafting was performed as described previously.^13,14 Segments of abdominal aorta from Balb/c (H2d) donor mice were excised, flushed with UW solution and then incubated in UW solution alone (containing 5 Mm CaCl2, 0.2 U/Ml gTGase and 3 mM GSH) or UW solution fortified with 0.2 U/mL gtTGase and 0.5 Mm polymer (LPG-Q, LPG-QSia3Lac) for 1 hour at 4° C. Aortic segments were then flushed with saline and interposed into the resected infra-renal aorta of C57BL/6 (H2b) recipient mice.
At day 2, 15 and 42 post-transplantation, grafted artery segments were perfusion fixed with 4% (v/v) paraformaldehyde, excised, and frozen in optimal cutting temperature medium. […] Medial thickness was quantified using ImageJ software (NIH) as described.69 Histological features of acute rejection at day 15 post-transplantation were graded in a blinded manner on a 0-12 scale because acute rejection involves more extensive features of immune reaction and injury compared to day 2 post-transplantation. […] Leukocyte infiltration, medial injury and intimal thickening were each graded on a 0-4 scale and an aggregate score calculated. For evaluation of chronic rejection, intimal thickening at day 42 was quantified by averaging the luminal narrowing in 3 cross-sections per artery that were ˜100, 150 and 200 μm past the suture sites using ImageJ™ software.

[6] = tested on: TNF-α activated Ea.hy926 cells co-cultured with IL-2 activated PBMCs; assay: PBMC-mediated cytotoxicity (LDH assay)
Procedure: EA.hy 926 monolayers were activated using TNF-α and PBMCs were activated using IL-2 as described in PBMC adhesion experiments. Following activation, PBMC was collected and resuspended in DMEM (Phenol free, 5% FBS, pen/strep). PBMCs were then added to activated EA.hy 926 monolayers (modified and unmodified) to a final concentration of 0.15×10^6 cells/mL and left to incubate at 37° C. and 5% CO2 for 18 hour. After treatment, the supernatant was collected and cell debris was removed through centrifugation. LDH content was measured using LDC cytotoxicity assay (Biovision Inc.™). Cytotoxicity was calculated using the equation below;
where, LDHsample is the amount of LDH released from the sample, LDHPBMC is the amount of LDH released from PBMC samples not subjected to EA.hy 926 monolayers, LDHalive is the amount of LDH released from EA.hy 926 monolayers not subjected to PBMCs, and LDHdead is the amount of LDH released of EA.hy926 monolayers treated with RIPA buffer for 10 minutes at room temperature.

linear polyglycerol glutamine (Ac-GQQQLGGGGG-{LPG}; not fully specified; also: part of the polymer BODIPY FL-labelled in some experiments) [LPG-Q]
LPG-Q attachment versus concentration ([1]; 0.2 mM-3.0 mM, 4° C., 30 minutes, UW solution with gtTGase): dose-dependent increase | levels of cell-surface labelling, enzyme-mediated approach compared to succinimidyl succinate amine coupling ([1]; 30 min at 4° C. in UW solution with gtTGase, versus LPG-SS): ~4.4 fold | half-life (t1/2) on the cell surface [2]: 8 h | polymer retained / glycocalyx specificity after enzyme-mediated glycocalyx removal [3]: higher specificity for glycocalyx modification | reduction of PBMC adhesion to endothelial cells compared to the control [4]: ~2.8 fold | medial inflammation (graded 0-4) [5]: not demonstrated | immunosuppression on the cell surface compared with polymer in solution [6]: more potent immunosuppression than LPG-Q-Sia3Lac in solution | PBMC-mediated endothelial cell death, in words ([6]; polymer ligated to cell surface): suppress PBMC-mediated endothelial cell death
